Values quoted from earlier work, collected in paper PMC11860437, “Gold Nanoparticles as a Platform for Delivery of Immunogenic Peptides to THP-1 Derived Macrophages: Insights into Nanotoxicity” (Vaccines, 2025).

What was measured:
[1] = test system: HeLa, A549, and CHO; conditions: three cell lines (HeLa, A549, and CHO)
Excerpt: (§1) The cytotoxicity of p-Au68 was particularly high when conjugated with peptides p2 (~30–50% cell death) and p4 (~40–60% cell death). […] These peptides differ from each other by the presence of the arginine-rich TAT peptide (YGRKKRRQRRR). It is noteworthy that pTAT-functionalized NPs are considered a promising approach to overcome ...

[2] = test system: K562 human erythroleukemia cells
Excerpt: as §1

YGRKKRRQRRR [pTAT]
toxicity [1]: low toxicity
membrane toxicity [2]: completely innocuous
